# Source: US12448393B2, “Use of novel compound, for preventing, improving or treating amyotrophic lateral sclerosis” (PRG S&TECH INC., priority 2019, dated 2025)
# Entries after “also recorded” stand apart in the source; their conditions may differ.
# Tests used:
# SOD1 [1] = target: T1, SOD1 (Homo sapiens, UniProt P00441); assay: Western blot / native gel analysis of SOD1 aggregation; format: cell-based
# Procedure: (§1) Using RIPA buffer (50 mM Tris-Cl, pH 7.5, 150 mM NaCl, 1% NP-40, 0.1% SDS and […]) for SDS-PAGE and lysis buffer (50 mM Tris-Cl, pH 7.5, 150 mM NaCl, 0.3% NP-40) for Native-PAGE, proteins were extracted from cells. Samples were separated by the SDS-PAGE or the Native-PAGE and transferred to PVDF membrane. Blotted membrane was blocked with TBST buffer including 3% skim milk for 1 hour, and reacted with specific antibodies. The reacted antibodies were detected by ECL and X-ray film exposure. Antibodies used in the present disclosure are as follows: pan-SOD1 (GTX100554) was purchased from Genetex (California, USA). Misfolded SOD1-specific antibody (B8H10) was purchased from MediMabs (Montreal, Canada). Actin (sc-1616), GST (sc-138), and GFP (Green fluorescent protein; sc-8036) were purchased from Santa Cruz biotechnology (Santa Cruz, CA, USA). TDP-43 antibody (10782-2-AP) was purchased from Proteintech (Rosemont, IL, USA). Anti-FLAG (Sigma; F3165) was purchased from Sigma Aldrich (St, Louis, Mo, USA), and HRP-conjugated goat anti-mouse, goat anti-rabbit, and mouse anti-goat antibodies (Pierce, Thermo Fisher Scientific, Inc., Rockford, IL, USA) were used as secondary antibodies.
# (§2) GFP-SOD1 (WT, G85R, G93A), non-tagged SOD1 (WT, A4V, G37R, G85R, G93A) and tdTomato-TDP43 expression vectors were purchased from Addgene (Cambridge, MA, USA). Transfection was performed using Jet-PEI reagent (JetPEI; Polyplus transfection, New York, NY, USA) according to the manufacturer's protocol. Briefly, vectors were mixed with JetPEI reagent in 150 mM NaCl buffer, and then mixture was reacted for 15 minutes. The mixture was added to cells in serum-free medium and reacted for 4 hours. After reaction, the cells were replaced with a culture medium supplemented with 10% FBS.
# SOD1 [2] = assay: as above; format: cell-based, human; conditions: for mutant SOD1 aggregation: FIGS. 3B and 3C
# Procedure: as §1, §2
# SOD1 [3] = target: T1, SOD1; assay: Immunofluorescence staining of SOD1 aggregation and misfolded SOD1; format: cell-based
# Procedure: (§3) Cells on coverslip were washed with PBS, fixed with 4% PFA at room temperature for 30 minutes, and then infiltrated with 0.1% Triton X-100/PBS for 10 minutes. The cells were treated with blocking solution (anti-Human Antibody 1:500 dilution in PBS) for 1 hour, and then cells were reacted with anti-pan SOD1 (1:400 dilution), misfolded SOD1 (B8H10; 1:200 dilution in blocking solution) at 4° C. overnight. Finally, the cells were reacted with FITC and rhodamine-conjugated secondary antibody at 4° C. for 6 hours. Nuclei were stained with 4,6-diamidino-2-phenylindole (DAPI), and endoplasmic reticula (ERs) were stained with ER-Tracker Red dye for 10 minutes. The cells were washed 3 times with PBS, and then coverslips were mounted with mounting solution [H-5501; Vector Laboratories (Burlingame, CA, USA)] and analyzed by fluorescence microscopy (Zeiss).
# as §2
# SOD1 [4] = assay: as above; format: cell-based, human; conditions: Table 1; IF staining of SOD1
# Procedure: as §3, §2
# SOD1^G93A-Tg mice [5] = assay: In vivo drug treatment of ALS model mice (grip strength, behaviour, histology, survival); set-up: species or system mouse
# Procedure: An experiment was performed in a facility approved by the Association for Laboratory Animal Care Assessment and Accreditation in accordance with the animal policy approved by Busan National University. B6SJL-Tg (SOD1^G93A) mice were purchased from Jackson Laboratory (Stock No: 002726). All mice were maintained under temperature and light-controlled conditions (20˜23° C., light-dark cycle 12 hr-12 hr) and were provided with sterile food and water.
# Vehicle (DMSO) and SLC-B036 (10 mg/kg, 20 mg/kg) were administered to 12-week-old or 14-week-old SOD1^G93A mice via intraperitoneal injection twice weekly for 6 weeks. Control mice were treated under the same conditions. For histological analysis, mice were sacrificed at 18 weeks. After dissection of mice, spinal cord was fixed with 4% paraformaldehyde for 48 hours according to basic tissue processing procedures, and embedded in a paraffin block. An embedded tissue (cervical region of the spinal cord) was cut into 5 μm with a Leica microtome, and transferred to an adhesive-coated slide (Marienfeld laboratory glassware, Germany). After deparaffinization and rehydration, the slide was stained with hematoxylin and eosin to determine the number of spinal nerves.
# For behavioral experiment, grip strength was checked every 2 weeks using a grip strength meter. The mice were allowed to grasp a tension bar with their forelimbs, and then their tails were slowly pulled until they released the bar. To observe motility, respiration, and quadriplegia of the mice, image analysis was performed at the end of administration (18-20 weeks).
# normal human fibroblasts = assay: Cell viability measurement (MTT), normal fibroblasts; format: cell-based; conditions: for cytotoxic effect in normal fibroblasts: MTT, FIG. 4E, FIG. 9B
# Procedure: HEK293 cells were purchased from American Type Culture Collection (ATCC, Manassas, VA, USA) and maintained at 37° C. and 5% CO2 in DMEM liquid medium including 10% fetal bovine serum and 1% penicillin-streptomycin. SK—N—SH cells were purchased from Korean Cell Line Bank (KCLB, Seoul, South Korea) and maintained in MEM medium including 10% fetal bovine serum, 1% antibiotic, 25 mM HEPES, and 300 mg/L L-Glu. Human fibroblasts (person) were purchased from Coriell Cell Repositories (New Jersey, USA) and maintained in EMEM including 15% FBS, 2 mM Glutamine, and 26 mM HEPES without antibiotics. Thapsigargin (ER calcium scavenger: CAS 67526-95-8) was purchased from Calbiochem (Darmstadt, Germany). CoCl2 (hypoxia-inducer: C8661) was purchased from Sigma Aldrich (St, Louis, Mo, USA).
# To check cells viability, the cells were reacted with 0.5 mg/ml MTT solution (475989; Merck, Darmstadt, Germany) at 37° C. for 4 hours. After removing residual solution and washing with PBS, precipitate was dissolved in 200 μl DMSO, and quantified by measuring absorbance at 540 nm.
# [6] = Pharmacokinetics (PK) analysis; format: in vivo; conditions: FIG. 8E
# SOD1^G93A-Tg mice [7] = assay: In vivo drug treatment of ALS model mice (grip strength, behaviour, histology, survival); set-up: species or system mouse; conditions: dosing from 14 weeks, observed at 17-weeks of age; FIGS. 7C and 8C
# T1 sequence (P00441 2-154): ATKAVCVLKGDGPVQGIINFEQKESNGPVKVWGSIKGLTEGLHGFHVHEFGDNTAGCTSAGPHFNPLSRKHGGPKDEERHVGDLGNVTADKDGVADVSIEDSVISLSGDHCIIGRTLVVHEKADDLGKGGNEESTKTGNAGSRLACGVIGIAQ
smiles,measurement,setting,value
"COc1cc(/C=C/C(=O)O[C@H]2Cc3cc4ccc(=O)oc4cc3OC2(C)C)ccc1O [PRG-A-01, (S)-8,8-dimethyl-2-oxo-7,8-dihydro-2H,6H-pyrano[3,2-g]chromen-7-yl (E)-3-(4-hydroxy-3-methoxyphenyl) acrylate]","SOD1 aggregation and TDP43 aggregation, native gel analysis","SOD1 [1]; TDP-43 overexpression, FIG. 5B",reduced; also recorded: decreased
same,"multimer bands of SOD1 and TDP-43, cross-linking experiment","SOD1 [1]; glutaraldehyde cross-linking, FIG. 5C",blocks multimer formation of SOD1; also recorded: weakened
same,mutant SOD1 aggregation,SOD1 [2],inhibits SOD1 aggregation
same,mutant SOD1 aggregation,SOD1 [2]; listed as SLC-B036,blocking mutant SOD1 aggregation in a dose-dependent manner
same,Western Blot,"SOD1 [2]; Table 1, effect on SOD1 aggregation, native / non-SDS-PAGE gel",Effect ○
same,misfolded SOD1 / SOD1 aggregation induced by hypoxic stress,"SOD1 [3]; CoCl2, FIG. 6C",blocks SOD1 aggregation induced by hypoxic stress; also recorded: reduced
same,"SOD1 aggregation induced by TDP-43 overexpression, immunofluorescence",SOD1 [3]; FIG. 5A,inhibited; also recorded: reduce the SOD1 aggregation as well as TDP-43
same,Immuno-fluorscence,SOD1 [4],Effect ○
same,dose dependence of effect on grip strength,"SOD1^G93A-Tg mice [5]; 20 mg/kg more effective than 10 mg/kg, FIGS. 8A and 8B",dose-dependent effect
same,effects in ALS model mice,"SOD1^G93A-Tg mice [5]; FIGS. 11A and 11B, summary statements",protective effect against muscle weakness and movement disorder
same,lifespan extension,"SOD1^G93A-Tg mice [5]; Kaplan-Meier survival, FIG. 8D",10 days
same,In vivo,"SOD1^G93A-Tg mice [5]; Table 1, ALS model mice",Effect ○
same,muscle strength compared to wild-type mice,"SOD1^G93A-Tg mice [5]; i.p. twice a week, administration from 12 weeks of age, grip strength, FIG. 7B",about 70%
same,"viability of cervical spinal nerves, histological analysis","SOD1^G93A-Tg mice [5]; spinal cord, H&E, FIG. 7D",intraspinal nerves were maintained and high
same,"muscle function, late treatment","SOD1^G93A-Tg mice [5]; starting at 14 weeks of age, forelimb grip strength, FIGS. 8A and 8B",good effect on muscle function
same,cytotoxic effect in normal fibroblasts,normal human fibroblasts,not cytotoxic
same,cytotoxic effect in normal fibroblasts,normal human fibroblasts; listed as SLC-B036,did not exhibit cytotoxic effect
same,Toxicity (MTT),"normal human fibroblasts; Table 1, cell type not given, neurons (FIG. 9A) and normal fibroblasts (FIG. 9B)",No
same,time to disappearance in body / blood,[6],≤ 30 min
same,"motor capacity, behavioral observation",SOD1^G93A-Tg mice [7],still had motor capacity
